This passage reports IC50 results from ChEMBL document CHEMBL5726069, “1-(3-aminopropyl) substituted cyclic amine compounds, preparation method therefor, and pharmaceutical compositions and uses thereof” (2019).

For this test, the target named is C-C chemokine receptor type 5 (Homo sapiens, UniProt P51681). The test is described as follows: Calcium Flux Inhibition Experiment: 1. HEK293 cells which can stably express CCR5 were inoculated in a 96-well plate and incubated overnight.2. The medium in each well into which cells were innoculated was removed and 40 μl/well of freshly prepared dye was added. The plate was placed in a 37° C. incubator and incubated for 40 minutes at constant temperature.3. The medicament to be determined was diluted with calcium buffer to eight concentration gradients, which is 1×10−4 M, 1×10−5 M, 1×10−6 M, 1×10−7 M, 1×10−8 M, 1×10−9 M, 1×10−10 M, and 1×10−11 M, respectively, and homogeneously mixed.4. The dye was removed. Freshly prepared calcium buffer was used to wash for one time, 50 μl of calcium buffer was added.5. FlexStation II was used for detection. 25 μl of calcium buffer containing the medicament to be determined was added automatically from the 15th second. The fluorescence value at 525 nm was read ultimately. The class given is cell-based.
Sequence of C-C chemokine receptor type 5 (P51681 whole entry): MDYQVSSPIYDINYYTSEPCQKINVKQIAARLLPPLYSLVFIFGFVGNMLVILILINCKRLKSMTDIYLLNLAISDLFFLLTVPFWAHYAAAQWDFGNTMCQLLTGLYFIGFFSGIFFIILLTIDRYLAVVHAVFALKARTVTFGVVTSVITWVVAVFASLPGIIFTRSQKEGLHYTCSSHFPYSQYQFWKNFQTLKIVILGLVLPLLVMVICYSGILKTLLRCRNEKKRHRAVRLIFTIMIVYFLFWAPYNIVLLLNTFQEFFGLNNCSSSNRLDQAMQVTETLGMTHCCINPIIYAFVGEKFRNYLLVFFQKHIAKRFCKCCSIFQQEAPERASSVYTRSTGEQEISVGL

Consider `Cc1nnc(C(C)C)n1C1CC2CCC(C1)N2CC[C@H](NC(=O)C1CCC(F)(F)CC1)c1ccc(Cl)s1` (stereo partly drawn), for which the IC50 (usually the point on the concentration scale where inhibition reaches its midpoint) came to 10.4 nM.

Consider `Cc1ccc([C@H](CCN2C3CCC2CC(n2c(C)nnc2C(C)C)C3)NC(=O)CC#N)s1` (stereo partly drawn), for which the 50% inhibitory concentration (IC50) is 8.29 nM.

Regarding `CC(=O)Oc1ccc([C@H](CCN2C3CCC2CC(n2c(C)nnc2C(C)C)C3)NC(=O)C2CCCCC2)s1` (stereo partly drawn), the half-maximal inhibitory concentration (IC50) amounted to 1.38 nM. On to `Cc1nnc(C(C)C)n1C1CC2CCC(C1)N2CC[C@H](NC(=O)C1CCC(F)(F)CC1)c1nccs1` (stereo partly drawn), for which the IC50 came out at 10.3 nM.

Regarding `Cc1nnc(C(C)C)n1C1CC2CCC(C1)N2CC[C@H](NC(=O)C1CCC(F)(F)CC1)c1ccc(C#N)s1` (stereo partly drawn), the 50% inhibitory concentration (IC50) was found to be 9.45 nM. For `Cc1nnc(C(C)C)n1C1CC2CCC(C1)N2CCC(NC(=O)C1CCC(F)(F)CC1)c1cccs1` (stereo not drawn) the value was 1.95 nM. For `Cc1ccc([C@H](CCN2C3CCC2CC(n2c(C)nnc2C(C)C)C3)NC(=O)C2CCC(F)(F)CC2)s1` (stereo partly drawn), the IC50 is 7.28 nM. Then `CC(=O)Nc1ccc([C@H](CCN2C3CCC2CC(n2c(C)nnc2C(C)C)C3)NC(=O)C2CCC(F)(F)CC2)s1` (stereo partly drawn), with 8.23 nM. Then `Cc1nnc(C(C)C)n1C1CC2CCC(C1)N2CC[C@H](NC(=O)C1CCC(F)(F)CC1)c1ccc(F)s1` (stereo partly drawn), with 9.33 nM; and `CNC(=O)c1ccc([C@H](CCN2C3CCC2CC(n2c(C)nnc2C(C)C)C3)NC(=O)C2CCC(F)(F)CC2)s1` (stereo partly drawn), with 13.7 nM; and `Cc1nnc(C(C)C)n1C1CC2CCC(C1)N2CC[C@H](NC(=O)C1CCCCC1)c1ccc(C(=O)N(C)C)s1` (stereo partly drawn), with 1.64 nM.

Consider `Cc1nnc(C(C)C)n1C1CC2CCC(C1)N2CC[C@H](NC(=O)C1CCC(F)(F)CC1)c1csc2ccccc12` (stereo partly drawn), for which the IC50 was determined as 11.4 nM. Then `CCc1ccc([C@H](CCN2C3CCC2CC(n2c(C)nnc2C(C)C)C3)NC(=O)C2CCC(F)(F)CC2)s1` (stereo partly drawn), with 4.63 nM.
